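48-hour exposure; five concentrations; linearly interpolated endpoints. GI50 is the concentration that inhibits growth by half.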 Calls of active or inactive are those of the source. No stated cut-off is given here; in the data, active = GI50 up to about 1.1 µM and inactive = higher.
Tests used:
Test in all cases: growth of human tumour cells (NCI), 48 h
RXF 393 = system: RXF 393
ACHN = system: ACHN
A549 = system: A549
HT-29 = system: HT-29
HCC 2998 = system: HCC 2998
SR = system: SR
DMS-114 = system: DMS-114
SK-OV-3 = system: SK-OV-3
SNB-19 = system: SNB-19
EKVX = system: EKVX
COLO 205 = system: COLO 205
LXFL 529 = system: LXFL 529
Malme-3M = system: Malme-3M
OVCAR-3 = system: OVCAR-3
OVCAR-5 = system: OVCAR-5
HOP-18 = system: HOP-18
TK-10 = system: TK-10
CCRF-CEM = system: CCRF-CEM
OVCAR-8 = system: OVCAR-8
XF498 = system: XF498
HL-60 = system: HL-60
DLD-1 = system: DLD-1
DMS-273 = system: DMS-273
CAKI-1 = system: CAKI-1
SF-539 = system: SF-539
KM12 = system: KM12
NCI-H226 = system: NCI-H226
SF-268 = system: SF-268
SNB-78 = system: SNB-78
LOX IMVI = system: LOX IMVI
SN12C = system: SN12C
HOP-92 = system: HOP-92
RXF 631 = system: RXF 631
786-0 = system: 786-0
SK-MEL-28 = system: SK-MEL-28
NCI-H522 = system: NCI-H522
RPMI-8226 = system: RPMI-8226
UACC-257 = system: UACC-257
SNB-75 = system: SNB-75
IGROV-1 = system: IGROV-1
SF-295 = system: SF-295
HCT-116 = system: HCT-116
SK-MEL-5 = system: SK-MEL-5
NCI-H23 = system: NCI-H23
UO-31 = system: UO-31
HOP-62 = system: HOP-62
MOLT-4 = system: MOLT-4
A498 = system: A498
M19-MEL = system: M19-MEL
KM-20L2 = system: KM-20L2
NCI-H460 = system: NCI-H460
UACC-62 = system: UACC-62
SW-620 = system: SW-620
K562 = system: K562
SK-MEL-2 = system: SK-MEL-2
U-251 = system: U-251
OVCAR-4 = system: OVCAR-4
M14 = system: M14
HCT-15 = system: HCT-15

NC1(C(=O)O)CCC(C(=O)O)CC1 (configuration not stated)
GI50 (RXF 393): > 100 µM (inactive)
GI50 (ACHN): > 100 µM (inactive)
GI50 (A549): > 100 µM (inactive)
GI50 (HT-29): > 100 µM (inactive)
GI50 (HCC 2998): > 100 µM (inactive)
GI50 (SR): > 100 µM (inactive)
GI50 (DMS-114): > 100 µM (inactive)
GI50 (SK-OV-3): > 100 µM (inactive)
GI50 (SNB-19): > 100 µM (inactive)
GI50 (EKVX): > 100 µM (inactive)
GI50 (COLO 205): > 100 µM (inactive)
GI50 (LXFL 529): > 100 µM (inactive)
GI50 (Malme-3M): > 100 µM (inactive)
GI50 (OVCAR-3): > 100 µM (inactive)
GI50 (OVCAR-5): > 100 µM (inactive)
GI50 (HOP-18): > 100 µM (inactive)
GI50 (TK-10): > 100 µM (inactive)
GI50 (CCRF-CEM): > 100 µM (inactive)
GI50 (OVCAR-8): > 100 µM (inactive)
GI50 (XF498): > 100 µM (inactive)
GI50 (HL-60): > 100 µM (inactive)
GI50 (DLD-1): > 100 µM (inactive)
GI50 (DMS-273): > 100 µM (inactive)
GI50 (CAKI-1): > 100 µM (inactive)
GI50 (SF-539): > 100 µM (inactive)
GI50 (KM12): > 100 µM (inactive)
GI50 (NCI-H226): > 100 µM (inactive)
GI50 (SF-268): > 100 µM (inactive)
GI50 (SNB-78): > 100 µM (inactive)
GI50 (LOX IMVI): > 100 µM (inactive)
GI50 (SN12C): > 100 µM (inactive)
GI50 (HOP-92): > 100 µM (inactive)
GI50 (RXF 631): > 100 µM (inactive)
GI50 (786-0): > 100 µM (inactive)
GI50 (SK-MEL-28): > 100 µM (inactive)
GI50 (NCI-H522): > 100 µM (inactive)
GI50 (RPMI-8226): > 100 µM (inactive)
GI50 (UACC-257): > 100 µM (inactive)
GI50 (SNB-75): > 100 µM (inactive)
GI50 (IGROV-1): > 100 µM (inactive)
GI50 (SF-295): > 100 µM (inactive)
GI50 (HCT-116): > 100 µM (inactive)
GI50 (SK-MEL-5): > 100 µM (inactive)
GI50 (NCI-H23): > 100 µM (inactive)
GI50 (UO-31): > 100 µM (inactive)
GI50 (HOP-62): > 100 µM (inactive)
GI50 (MOLT-4): > 100 µM (inactive)
GI50 (A498): > 100 µM (inactive)
GI50 (M19-MEL): > 100 µM (inactive)
GI50 (KM-20L2): > 100 µM (inactive)
GI50 (NCI-H460): > 100 µM (inactive)
GI50 (UACC-62): > 100 µM (inactive)
GI50 (SW-620): > 100 µM (inactive)
GI50 (K562): > 100 µM (inactive)
GI50 (SK-MEL-2): > 100 µM (inactive)
GI50 (U-251): > 100 µM (inactive)
GI50 (OVCAR-4): > 100 µM (inactive)
GI50 (M14): > 100 µM (inactive)

COc1cccc(NC(=O)N/C(=C/c2ccc(N(CCC#N)CCC#N)cc2)NC(=O)c2cc([N+](=O)[O-])ccc2Cl)c1
GI50 (RXF 393): > 100 µM (inactive)
GI50 (ACHN): > 100 µM (inactive)
GI50 (A549): > 100 µM (inactive)
GI50 (HCT-15): 95.5 µM
GI50 (SR): 10.1 µM (inactive)
GI50 (DMS-114): 37.2 µM (inactive)
GI50 (SK-OV-3): > 100 µM (inactive)
GI50 (SNB-19): > 100 µM (inactive)
GI50 (EKVX): > 100 µM (inactive)
GI50 (COLO 205): > 100 µM (inactive)
GI50 (LXFL 529): > 100 µM (inactive)
GI50 (OVCAR-3): > 100 µM (inactive)
GI50 (OVCAR-5): > 100 µM (inactive)
GI50 (HOP-18): > 100 µM (inactive)
GI50 (TK-10): > 100 µM (inactive)
GI50 (CCRF-CEM): 77.8 µM (inactive)
GI50 (OVCAR-8): > 100 µM (inactive)
GI50 (XF498): > 100 µM (inactive)
GI50 (DLD-1): 89.5 µM (inactive)
GI50 (DMS-273): > 100 µM (inactive)
GI50 (CAKI-1): > 100 µM (inactive)
GI50 (SF-539): > 100 µM (inactive)
GI50 (KM12): > 100 µM (inactive)
GI50 (NCI-H226): > 100 µM (inactive)
GI50 (SF-268): > 100 µM (inactive)
GI50 (SNB-78): > 100 µM (inactive)
GI50 (LOX IMVI): 71.4 µM (inactive)
GI50 (SN12C): > 100 µM (inactive)
GI50 (HOP-92): > 100 µM (inactive)
GI50 (RXF 631): > 100 µM (inactive)
GI50 (SK-MEL-28): 64 µM (inactive)
GI50 (NCI-H522): 26.5 µM (inactive)
GI50 (RPMI-8226): 51.6 µM (inactive)
GI50 (IGROV-1): > 100 µM (inactive)
GI50 (SF-295): > 100 µM (inactive)
GI50 (HCT-116): > 100 µM (inactive)
GI50 (SK-MEL-5): > 100 µM (inactive)
GI50 (NCI-H23): > 100 µM (inactive)
GI50 (UO-31): > 100 µM (inactive)
GI50 (HOP-62): > 100 µM (inactive)
GI50 (MOLT-4): 35 µM (inactive)
GI50 (M19-MEL): > 100 µM (inactive)
GI50 (KM-20L2): > 100 µM (inactive)
GI50 (UACC-62): 89.3 µM (inactive)
GI50 (K562): > 100 µM (inactive)
GI50 (SK-MEL-2): > 100 µM (inactive)
GI50 (U-251): > 100 µM (inactive)
GI50 (OVCAR-4): > 100 µM (inactive)

Cn1cc(NC(=O)c2cc(NC(=O)CCCCCCCC(=O)Nc3cc(C(=O)Nc4cc(C(=O)NCCC(=N)N)n(C)c4)n(C)c3)cn2C)cc1C(=O)NCCC(=N)N
GI50 (RXF 393): 17 µM (inactive)
GI50 (ACHN): 58.1 µM (inactive)
GI50 (A549): 13.9 µM (inactive)
GI50 (HT-29): 63.1 µM (inactive)
GI50 (HCT-15): > 100 µM
GI50 (HCC 2998): 16.1 µM (inactive)
GI50 (SR): 5.26 µM (inactive)
GI50 (DMS-114): 4.03 µM (inactive)
GI50 (SK-OV-3): > 100 µM (inactive)
GI50 (SNB-19): 55.1 µM (inactive)
GI50 (EKVX): 22 µM (inactive)
GI50 (COLO 205): 13.2 µM (inactive)
GI50 (LXFL 529): 12.4 µM (inactive)
GI50 (Malme-3M): 5.75 µM (inactive)
GI50 (OVCAR-3): 32.1 µM (inactive)
GI50 (OVCAR-5): > 100 µM (inactive)
GI50 (HOP-18): 34 µM (inactive)
GI50 (TK-10): 15 µM (inactive)
GI50 (CCRF-CEM): 25.3 µM (inactive)
GI50 (OVCAR-8): 19.1 µM (inactive)
GI50 (XF498): 29.2 µM (inactive)
GI50 (HL-60): 3.15 µM (inactive)
GI50 (DLD-1): 30.9 µM (inactive)
GI50 (DMS-273): 11.2 µM (inactive)
GI50 (CAKI-1): 18.8 µM (inactive)
GI50 (SF-539): 17.7 µM (inactive)
GI50 (KM12): 7.53 µM (inactive)
GI50 (SF-268): 19.8 µM (inactive)
GI50 (SNB-78): 35.2 µM (inactive)
GI50 (LOX IMVI): 15 µM (inactive)
GI50 (SN12C): 12.6 µM (inactive)
GI50 (HOP-92): > 100 µM (inactive)
GI50 (RXF 631): 56.9 µM (inactive)
GI50 (786-0): 34 µM (inactive)
GI50 (SK-MEL-28): 11.7 µM (inactive)
GI50 (UACC-257): 5.7 µM (inactive)
GI50 (SNB-75): 35.2 µM (inactive)
GI50 (IGROV-1): 5.82 µM (inactive)
GI50 (SF-295): > 100 µM (inactive)
GI50 (HCT-116): 17.9 µM (inactive)
GI50 (SK-MEL-5): 7.53 µM (inactive)
GI50 (NCI-H23): 17.3 µM (inactive)
GI50 (UO-31): > 100 µM (inactive)
GI50 (HOP-62): > 100 µM (inactive)
GI50 (MOLT-4): 21.9 µM (inactive)
GI50 (A498): 13.7 µM (inactive)
GI50 (M19-MEL): 5.43 µM (inactive)
GI50 (KM-20L2): > 100 µM (inactive)
GI50 (NCI-H460): 4.69 µM (inactive)
GI50 (UACC-62): 15.7 µM (inactive)
GI50 (SW-620): 32.7 µM (inactive)
GI50 (K562): 11 µM (inactive)
GI50 (SK-MEL-2): 14.1 µM (inactive)
GI50 (U-251): 17.2 µM (inactive)
GI50 (OVCAR-4): 46.1 µM (inactive)
GI50 (M14): 27.9 µM (inactive)

Reference: ChEMBL document CHEMBL1201862, “PubChem BioAssay data set” (2004)
